In patent US9493727B2 (priority 2010, dated 2016):
Several values for one entry are separate records, joined by “and”; a condition that tells them apart may be missing. Identical values can stand only once.

Assays:
[1] = format: physicochemical

| Compound | Anionic 1 h, emulsion stability, mL separation [mL] | Anionic 24 h, emulsion stability, mL separation [mL] | Adjuvant 1 h, emulsion stability, mL separation [mL] | Nonionic 1 h, emulsion stability, mL separation [mL] | Adjuvant 24 h, emulsion stability, mL separation [mL] | Nonionic 24 h, emulsion stability, mL separation [mL] | % Separation 1 h (C = cream) [1] | % Separation 24 h (C = cream) ([1]; 24 h) | % Separation 24 h (O = oil separated) ([1]; 24 h) |
| --- | --- | --- | --- | --- | --- | --- | --- | --- | --- |
| CN(C)CCCNC(=O)CCCCCCC/C=C/CCCCCCCC(=O)NCCCN(C)C [Mix-26, C18 DiDMAPA Amide] | 0 | 0 | – | – | – | – | – | – | – |
| C[N+](C)([O-])CCCNC(=O)CCCCCCC/C=C/CCCCCCCC(=O)NCCC[N+](C)(C)[O-] [Mix-29, C18 DiDMAPA DiAO] | 0 | 0 | 0 | 0 | 0 | – | – | – | – |
| C=CCCCCCCCC(=O)NCCC[N+](C)(C)[O-] [Sample C10-20, C10 DMAPA AO] | 0 | 0 | 0 | 1 | 0 | 1 | – | – | – |
| CCCC(CCCCCCCC(=O)NCCC[N+](C)(C)[O-])S(=O)(=O)[O-].[Na+] (centres unmarked) [Sample C12-21, C12 DMAPA AO Sulfonate] | 0 | 0 | 0 | – | 0 | – | – | – | – |
| CCCC(CCCCCCCC(=O)NCCCN(C)C)S(=O)(=O)[O-].[Na+] (centres unmarked) [Sample C12-42, C12 DMAPA Sulfonate] | – | – | – | – | – | – | 3 C % | 3.1 C % and 3.3 C % | – |
| CCCCCCCC(CCCCCCCC(=O)NCCCN(C)C)S(=O)(=O)[O-].[Na+] (centres unmarked) [Sample C16-11, C16-DMAPA Sulfonate] | – | – | – | – | – | – | 3.1 C % and 2.8 C % | 4 C % and 3.6 C % | – |
| C[N+](C)([O-])CCCNC(=O)CCCCCCCCC(CCCCCCCC(=O)NCCC[N+](C)(C)[O-])S(=O)(=O)[O-].[Na+] (centres unmarked) [Sample C18-30, C18 DiDMAPA DiAO Sulfonate] | 0 | 0 | 0 | – | 0 | – | 3.9 C % and 3.1 C % | 3.5 C, 0.5 O % and 3.6 C % | 3.5 C, 0.5 O % |
| CN(C)CCCNC(=O)CCCCCCCCC(CCCCCCCC(=O)NCCCN(C)C)S(=O)(=O)[O-].[Na+] (centres unmarked) [Sample C18-68, C18 diDMAPA Amide Sulfonate] | 0 | 0 | 0 | – | 0 | – | – | – | – |
| C16 DMAPA Sulfonate AO [Sample C16-12] | 0 | 0 | 0 | 0.4 | 0 | 0.5 | – | – | – |
